# Assay results from ChEMBL document CHEMBL6127118, “Identification of Oral Bioavailable Coumarin Derivatives as Potential AR Antagonists Targeting Prostate Cancer” (J Med Chem, 2024).
# What was measured:
# Androgen receptor [1] = biological target: T1, Androgen receptor (Homo sapiens, UniProt P10275); experiment: Antagonist activity at DHT-induced Androgen receptor in human LNCaP cells transfected with ARR2PB-eGFP incubated for 3 days; format: cell-based
# T1 sequence (P10275 whole entry): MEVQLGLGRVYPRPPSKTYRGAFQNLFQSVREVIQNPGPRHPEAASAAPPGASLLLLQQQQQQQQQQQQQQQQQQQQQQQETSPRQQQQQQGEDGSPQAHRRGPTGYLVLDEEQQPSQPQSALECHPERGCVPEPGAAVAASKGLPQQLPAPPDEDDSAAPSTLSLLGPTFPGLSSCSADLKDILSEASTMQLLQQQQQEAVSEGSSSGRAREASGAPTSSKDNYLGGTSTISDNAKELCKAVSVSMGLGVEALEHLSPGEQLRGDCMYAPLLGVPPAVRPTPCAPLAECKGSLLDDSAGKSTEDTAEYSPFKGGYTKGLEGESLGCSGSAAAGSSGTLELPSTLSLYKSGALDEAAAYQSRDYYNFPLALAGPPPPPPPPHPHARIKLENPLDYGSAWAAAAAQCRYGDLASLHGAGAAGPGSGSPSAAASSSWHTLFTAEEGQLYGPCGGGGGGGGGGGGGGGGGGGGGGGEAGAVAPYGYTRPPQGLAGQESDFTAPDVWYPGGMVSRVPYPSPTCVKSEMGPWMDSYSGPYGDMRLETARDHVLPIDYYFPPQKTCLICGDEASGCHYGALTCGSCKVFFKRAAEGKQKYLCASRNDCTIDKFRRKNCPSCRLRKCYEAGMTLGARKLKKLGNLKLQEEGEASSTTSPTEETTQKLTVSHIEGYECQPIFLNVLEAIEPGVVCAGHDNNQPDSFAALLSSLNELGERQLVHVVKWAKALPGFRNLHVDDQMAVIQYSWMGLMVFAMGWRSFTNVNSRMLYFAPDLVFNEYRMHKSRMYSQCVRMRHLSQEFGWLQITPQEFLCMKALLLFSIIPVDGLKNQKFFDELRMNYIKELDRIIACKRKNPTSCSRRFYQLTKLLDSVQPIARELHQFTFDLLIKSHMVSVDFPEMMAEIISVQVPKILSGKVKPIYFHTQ
# NIH3T3 = experiment: Antiproliferative activity against mouse NIH3T3 cells incubated for 72 hrs by MTT assay; format: toxicity, cell-based; conditions: nih3t3, 72 h
# [2] = Cmax in Sprague-Dawley rat at 5 mg/kg, po; format: ADME, organism-based; conditions: in vivo
# [3] = Clearance in Sprague-Dawley rat at 1 mg/kg, iv; format: ADME, organism-based; conditions: in vivo
# [4] = Half life in Sprague-Dawley rat at 5 mg/kg, po; format: ADME, organism-based; conditions: in vivo
# [5] = Clearance in Sprague-Dawley rat at 5 mg/kg, po; format: ADME, organism-based; conditions: in vivo
# [6] = Apparent volume of distribution in Sprague-Dawley rat at 5 mg/kg, po; format: ADME, organism-based; conditions: in vivo
# [7] = Cmax in Sprague-Dawley rat at 1 mg/kg, iv; format: ADME, organism-based; conditions: in vivo
# [8] = AUC (0 to t) in Sprague-Dawley rat at 1 mg/kg, iv; format: ADME, organism-based; conditions: in vivo
# GES1 = experiment: (§1) Antiproliferative activity against human GES1 cells incubated for 72 hrs by MTT assay; format: toxicity, cell-based; conditions: ges1, 72 h, time 72 hrs
# [9] = AUC (0 to t) in Sprague-Dawley rat at 5 mg/kg, po; format: ADME, organism-based; conditions: in vivo
# [10] = Antiproliferative activity against human Chang liver cells incubated for 72 hrs by MTT assay; format: toxicity, cell-based
# [11] = Oral bioavailability in Sprague-Dawley rat at 5 mg/kg; format: ADME, organism-based; conditions: in vivo
# [12] = Half life in Sprague-Dawley rat at 1 mg/kg, iv; format: ADME, organism-based; conditions: in vivo
# [13] = Apparent volume of distribution in Sprague-Dawley rat at 1 mg/kg, iv; format: ADME, organism-based; conditions: in vivo, read-out: Vz
# [14] = Inhibition of DHT-induced secreted PSA production in human LNCaP cells
# PC-3 = experiment: Antiproliferative activity against androgen independent-human PC-3 cells incubated for 72 hrs by MTT assay; conditions: PC-3, 72 h
# CWR22R = experiment: Antiproliferative activity against androgen independent-human 22Rv1 cells incubated for 72 hrs by MTT assay; conditions: 22Rv1, 72 h
# [15] = as §1; format: toxicity, cell-based; conditions: GES1 cells
# LNCaP = experiment: Antiproliferative activity against androgen dependent-human LNCaP cells incubated for 72 hrs by MTT assay
# [16] = Toxicity in CB17 SCID mouse model xenografted with human LNCaP cells assessed as signs of toxicity at 60 mg/kg, po bid for 32 days; format: organism-based; conditions: in vivo, 768 h, time 32 day
# Androgen receptor [17] = biological target: Androgen receptor (Homo sapiens, UniProt P10275, F877L/T878A); experiment: Antagonist activity at DHT-induced Androgen receptor F876L/[…] mutant in human PC-3 cells transfected with ARR2PB-Luc by Dual-Luciferase Reporter assay; format: cell-based
# Sequence of Androgen receptor (Homo sapiens, UniProt P10275, F877L/T878A) (P10275 whole entry F877L/T878A): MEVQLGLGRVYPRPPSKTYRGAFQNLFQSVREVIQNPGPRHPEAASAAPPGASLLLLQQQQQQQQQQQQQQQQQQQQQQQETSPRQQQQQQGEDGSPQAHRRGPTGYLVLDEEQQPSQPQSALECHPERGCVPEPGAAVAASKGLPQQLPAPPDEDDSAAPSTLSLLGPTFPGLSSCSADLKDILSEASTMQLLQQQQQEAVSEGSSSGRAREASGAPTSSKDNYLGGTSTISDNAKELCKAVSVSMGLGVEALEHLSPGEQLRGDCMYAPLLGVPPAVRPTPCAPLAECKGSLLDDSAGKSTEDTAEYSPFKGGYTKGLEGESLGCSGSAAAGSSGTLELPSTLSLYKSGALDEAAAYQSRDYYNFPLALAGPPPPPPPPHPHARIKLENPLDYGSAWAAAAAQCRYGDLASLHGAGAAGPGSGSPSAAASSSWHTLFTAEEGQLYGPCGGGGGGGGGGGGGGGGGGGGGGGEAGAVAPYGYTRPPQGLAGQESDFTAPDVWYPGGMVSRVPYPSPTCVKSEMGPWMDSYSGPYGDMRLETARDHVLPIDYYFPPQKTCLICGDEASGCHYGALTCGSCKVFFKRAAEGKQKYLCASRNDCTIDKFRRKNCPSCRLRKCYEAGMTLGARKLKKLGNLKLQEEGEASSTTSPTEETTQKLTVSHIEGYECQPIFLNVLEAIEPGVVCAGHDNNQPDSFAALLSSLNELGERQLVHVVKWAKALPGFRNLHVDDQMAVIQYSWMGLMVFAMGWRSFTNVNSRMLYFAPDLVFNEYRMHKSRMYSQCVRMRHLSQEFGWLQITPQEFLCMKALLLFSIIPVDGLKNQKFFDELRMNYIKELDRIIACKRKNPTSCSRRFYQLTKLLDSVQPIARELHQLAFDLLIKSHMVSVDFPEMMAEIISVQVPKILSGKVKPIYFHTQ
# [18] = Toxicity in CB17 SCID mouse model xenografted with human LNCaP cells assessed as body weight loss at 60 mg/kg, po bid for 32 days; format: organism-based; conditions: in vivo, 768 h, time 32 day
# Androgen receptor [19] = biological target: Androgen receptor (Homo sapiens, UniProt P10275, W742C); experiment: Antagonist activity at DHT-induced Androgen receptor W741C mutant in human PC-3 cells transfected with ARR2PB-Luc by Dual-Luciferase Reporter assay; format: cell-based
# Sequence of Androgen receptor (Homo sapiens, UniProt P10275, W742C) (P10275 whole entry W742C): as the sequence (P10275 whole entry F877L/T878A) above, with W742C, L877F, A878T counted along it
# [20] = Toxicity in CB17 SCID mouse model xenografted with human LNCaP cells assessed as drug tolerance at 60 mg/kg, po bid for 32 days; format: organism-based; conditions: in vivo, 768 h, time 32 day
compound,measurement,setting,value
O=c1cc(C(F)(F)F)c2ccc(NCc3ccc(CO)cc3)cc2o1,IC50,Androgen receptor [1],0.092 µM
O=c1cc(C(F)(F)F)c2ccc(NCc3ccc(Br)c(F)c3)cc2o1,IC50,Androgen receptor [1],0.069 µM
CN(Cc1ccc(Cl)cc1)c1ccc2c(C(F)(F)F)cc(=O)oc2c1,Activity,NIH3T3,Non-Toxic
same,Cmax,[2],139 ng/mL
same,clearance,[3],16.3 mL/min/kg
same,half-life,[4],11.8 h
same,CL/F,[5],68 mL/min/kg
same,Vz,[6],112.33 L/kg
same,Cmax,[7],809 ng/mL
same,AUC(0-t),[8],750 ng·h/mL
same,Activity,GES1,Non-Toxic
same,AUC(0-t),[9],724 ng·h/mL
same,Activity,[10],Non-Toxic
same,bioavailability,[11],19.3%
same,half-life,[12],19.8 h
same,Vd,[13],27.8 L/kg
O=c1cc(C(F)(F)F)c2ccc(NCc3ccccc3Br)cc2o1,IC50,Androgen receptor [1],0.1 µM
O=c1cc(C(F)(F)F)c2ccc(NCc3ccc(OC(F)F)cc3)cc2o1,IC50,Androgen receptor [1],0.068 µM
CCN(Cc1ccc(F)cc1)c1ccc2c(C(F)(F)F)cc(=O)oc2c1,IC50,Androgen receptor [1],0.083 µM
O=c1cc(C(F)(F)F)c2ccc(NCc3ccc(Br)cc3)cc2o1,IC50,Androgen receptor [1],0.042 µM
O=c1cc(C(F)(F)F)c2ccc(NCc3ccc(C(F)(F)F)cc3)cc2o1,IC50,Androgen receptor [1],0.11 µM
CN(Cc1ccc(Br)cc1)c1ccc2c(C(F)(F)F)cc(=O)oc2c1,IC50,Androgen receptor [1],0.097 µM
CN(Cc1cc(F)ccc1F)c1ccc2c(C(F)(F)F)cc(=O)oc2c1,IC50,Androgen receptor [1],0.17 µM
Cc1ccc(CNc2ccc3c(C(F)(F)F)cc(=O)oc3c2)cc1F,IC50,Androgen receptor [1],0.073 µM
CNC(=O)c1ccc(N2C(=S)N(c3ccc(C#N)c(C(F)(F)F)c3)C(=O)C2(C)C)cc1F [ENZALUTAMIDE],IC50,[14],0.42 µM
same,IC50,PC-3,> 50 µM
same,IC50,CWR22R,> 50 µM
same,Activity,GES1,Non-Toxic
same,IC50 at 72 h,[15],> 50 µM
same,IC50,LNCaP,23.3 µM
CN(Cc1ccc(F)cc1)c1ccc2c(C(F)(F)F)cc(=O)oc2c1,Activity,NIH3T3,Non-Toxic
same,Cmax,[2],353 ng/mL
same,clearance,[3],41 mL/min/kg
same,Activity,[16],Non-Toxic
same,IC50,Androgen receptor [17],0.17 µM
same,half-life,[4],4.82 h
same,CL/F,[5],58.5 mL/min/kg
same,Vz,[6],24.6 L/kg
same,Cmax,[7],1060 ng/mL
same,AUC(0-t),[8],426 ng·h/mL
same,Activity,GES1,Non-Toxic
same,AUC(0-t),[9],1410 ng·h/mL
same,Activity,[18],Non-Toxic
same,Activity,[10],Non-Toxic
same,IC50,Androgen receptor [19],0.16 µM
same,bioavailability,[11],66.2%
same,Activity,[20],Non-Toxic
same,half-life,[12],0.5 h
same,IC50,Androgen receptor [1],0.051 µM
same,Vd,[13],1.81 L/kg
O=c1cc(C(F)(F)F)c2cc([N+](=O)[O-])c(OCc3ccc(Br)cc3)cc2o1,IC50,Androgen receptor [1],> 10 µM
